Laboratory results taken from US7276494B2, “Photosensitisers” (Photopharmica Limited, priority 2000, dated 2007).

Tests used:
RIF-1 tumour cells = test: In vitro photodynamic activity, RIF-1 tumour cells, cell kill by MTT assay after 665 nm laser radiation; format: cell-based, murine; conditions: for Light: LD50 (average) / Dark: cell kill: RIF-1 tumour cells, MTT assay; for Light: LD50 (average): 665 nm laser radiation for a fixed time; for Dark: cell kill: no light
Experimental: In vitro photodynamic activity for zinc phthalocyanine-2-(N-2-carboxyethyl)sulphonamide compared with Zinc phthalocyanine tetrasulphonic acid. The sensitiser was tested by incubation with RIF-1 tumour cells at various dose rates, and measuring the cell kill by MTT assay after exposure to 665 nm laser radiation for a fixed time. The results were compared with zinc phthalocyanine tetrasulphonic acid as a control, and were expressed as the LD50 value for the sensitisers.

[1] = test system: RIF-1 (murine fibrosarcoma) cells; test: Phototoxicity towards cells in culture (photocytotoxic activity in killing RIF-1 cells); format: cell-based; conditions: concentration causing 50% cell death in two hours of illumination
From the text: [Phot]=Zinc Phthalocyanine; n=4; LD50 is the concentration of drug needed to cause 50% cell death in two hours of illumination

LSBD1 tumour = test: PDT-induced LSBD1 tumour growth delay in BDIX rats; format: in vivo; conditions: 400 J
Experimental: Data are shown in two animals models, the rat and the mouse. […] Growth delay measures the additional time taken for a treated tumour to grow to a given size, compared with an untreated tumour. Zero growth delay signifies no effect and growth delays of 5 days or longer imply substantial PDT activity.
(1) PDT-Induced LSBD1 Tumour Growth Delay in BDIX Rats
Tumour growth delay is calculated as the number of days for treated tumour to reach a mean diameter of 15 mm minus the number of days for a control tumour to reach a mean diameter of 15 mm. Data for various compounds are shown in Table 2, which also indicates the times (drug-light interval) at which effects occurred.

red blood cells = conditions: J. Photochem. Photobiol B: Biology., 45 (1998) 28-35; cited from earlier work
[2] = drug-light interval 4 h, 10 mg/kg, 680 nm phthalocyanines / 630 nm PHP
[3] = drug-light interval 24 h, 10 mg/kg, 680 nm phthalocyanines / 630 nm PHP
[4] = drug-light interval 48 h, 10 mg/kg, 680 nm phthalocyanines / 630 nm PHP
[5] = drug-light interval 24 h, 5 mg/kg, 680 nm
[6] = drug-light interval 48 h, 5 mg/kg, 680 nm

zinc phthalocyanine tetrasulphonic acid [reference compound]
Light: LD50 (average) (RIF-1 tumour cells): > 10 µM | Dark: cell kill (RIF-1 tumour cells): no cell kill detectable

tetrasulphonylamino butyric acid zinc (II) phthalocyanine [TSZnPc-aminobutyric acid]
2h LD50 (mean ± SD, n 3) [1]: 90 ± 30 µM | Tumour growth delay (LSBD1 tumour; [2]): 4.3 ± 1.44 days | Tumour growth delay (LSBD1 tumour; [3]): 7.83 ± 3.33 days | Tumour growth delay (LSBD1 tumour; [4]): 1.67 ± 1.53 days

tetrasulphonylamino caproic acid zinc (II) phthalocyanine [TSZnPc-aminocaproic acid]
2h LD50 (mean ± SD, n 3) [1]: 104 ± 14 µM

tetrasulphonylamino-α-alanine zinc (II) phthalocyanine [TSZnPc-α-alanine]
2h LD50 (mean ± SD, n 3) [1]: 109 ± 39 µM | Tumour growth delay (LSBD1 tumour; [2]): 4.33 ± 0.83 days | Tumour growth delay (LSBD1 tumour; [3]): 6.67 ± 1.09 days | Tumour growth delay (LSBD1 tumour; [4]): 3.33 ± 0.73 days

zinc phthalocyanine-2-(N-2-carboxyethyl)sulphonamide
Light: LD50 (average) (RIF-1 tumour cells): 0.2 µM | Dark: cell kill (RIF-1 tumour cells): no cell kill detectable | times more PDT active than the tetrasulphonic acid (in vitro) (RIF-1 tumour cells; ratio of light LD50 values, RIF-1 cells): at least 50 times

Tetrasulphonylaminoglycine zinc (II) phthalocyanine [TSZnPc-glycine]
2h LD50 (mean ± SD, n 3) [1]: 142 ± 37 µM | Tumour growth delay (LSBD1 tumour; drug-light interval 4 h, 5 mg/kg, 680 nm): 8.5 ± 3.5 days | Tumour growth delay (LSBD1 tumour; [5]): 4.7 ± 0.75 days | Tumour growth delay (LSBD1 tumour; [6]): 4.5 days | ability to effect haemolysis of red blood cells (red blood cells): relatively poor

tetrasulphonylamino valeric acid zinc (II) phthalocyanine [TSZnPc-aminovaleric acid]
2h LD50 (mean ± SD, n 3) [1]: 125 ± 13 µM

tetrasulphonylamino β-alanine zinc (II) phthalocyanine [TSZnPc-β-alanine]
2h LD50 (mean ± SD, n 3) [1]: 109 ± 31 µM | Tumour growth delay (LSBD1 tumour; drug-light interval 2 h, 10 mg/kg, 680 nm): 6 ± 0.62 days | Tumour growth delay (LSBD1 tumour; [2]): 10 ± 2.62 days | Tumour growth delay (LSBD1 tumour; drug-light interval 6 h, 10 mg/kg, 680 nm): 5.25 ± 1.59 days | Tumour growth delay (LSBD1 tumour; [5]): 2 days | Tumour growth delay (LSBD1 tumour; [6]): 2 days
